Test results from patent US20250304623A1, “PEPTIDES FOR INTRACELLULAR DELIVERY” (UNIVERSIDADE DE SANTIAGO DE COMPOSTELA, priority 2022, published 2025).
*: point of attachment. NHNH2 = NN*

Legend:
Format in all cases: cell-based
[1] = system: HepG2 cells expressing EGFP; assay: EGFP-targeting siRNA delivery (GFP silencing vs siMOCK), HepG2
Method: (§1) To generate an EGFP expressing HeLa cell line, HeLa cells were transfected with EGFP pDNA (pEGFP-C1, Clontech) and stable transfectants were selected with 400 μg/mL of G-418 (Millipore). Green clones were selected by epifluorescence microscopy and tested for EGFP expression stability through several passages. […] All other EGFP-expressing cell lines were obtained in a similar way from parent non-EGFP-expressing cell lines.
Cells expressing EGFP were seeded in a 96 well plate the day before the experiment at a concentration of 50,000 cell/mL (100 μL/w) in DMEM+10% FBS+1% Gln-Abt. For robotic library screening, the delivery of an EGFP-targeting siRNA (EGFP: enhanced green fluorescent protein, Ambion® Silencer® GFP Positive Control siRNA (siGFP) (AM4626)) in six different cell lines expressing EGFP was performed. […] The mixture was shaken for 30 min at room temperature (rt) before the addition to the cells. The cell medium was aspirated, and cells were washed twice with PBS. Finally, 50 μL of the solution of siRNA/amphiphile complexes were added to the cells and incubated for 4 h. After transfection, the medium was replaced by 100 μL of fresh DMEM supplemented with 10% FBS. The fluorescence knockdown was quantified after 72 h in a plate reader, by comparison with cells transfected with a non-targeting siRNA control (siMOCK, Silencer™ Negative Control No. 1 siRNA (siMOCK) (AM4611)). EGFP knockdown was compared with Lipofectamine® RNAiMAX silencing efficiency (30-60% depending on cell line, defined with a numeric value in the below tables). All experiments were done in triplicate.
(§2) Tables 1-7: RLuc (pDNA) or EGFP (mRNA) expression levels were normalized to Lipofectamine reagents (value=1) and expressed as fold-times signal increase. In the case of siRNA, the siRNA treated cells fluorescence was compared with siMOCK control fluorescence, while Cas9-RNP mediated knockout was measured against the fluorescence of untreated cells. In both siRNA and Cas9-RNP, values are expressed as % fluorescence reduction. Amphiphile concentration was 5 μM in all cases. All experiments were performed in triplicate.
Tables 20-25 show the mean (triplicates) percentage of GFP-silencing, accounted by fluorescence intensity decrease relative to a non-targeting siRNA (siMOCK) control, measured after the transfection of siRNA by different amphiphiles at different concentrations in a variety of cell lines. Background values, accounted by untreated control cells, were subtracted for processing.

Hek293 cells = assay: EGFP mRNA delivery, robotic library screening, Hek293
Method: Cells were seeded in a 96 well plate the day before the experiment at a concentration of 50,000 cell/mL (100 μL/w) in DMEM+10% FBS+1% Gln-Abt. For robotic library screening, the delivery of EGFP-mRNA (from TriLink, fully substituted with 5-methoxyuridine, capped and polyadenylated; TriLink, CleanCap® EGFP mRNA (5moU), ref. L-7201) in six different cell lines was performed. Amphiphilic molecule stock solutions were prepared in DMSO as described above and diluted in DMEM to afford a range of concentrations. The solutions of EGFP-mRNA/amphiphilic molecule complexes were freshly prepared prior to the transfection experiments. 35 μL of the corresponding amphiphile were added to 10 μL of a solution of EGFP-mRNA at 10 ng/μL in DMEM. The mixture was shaken for 30 min at room temperature before the addition to the cells. The cell medium was aspirated, and cells were washed with PBS twice. Cells were covered with 39 μL of DMEM and 11 μL of the complex's solution were added to the cells and incubated for 4 h (final concentration of peptide=2.5, 5 and 10 μM; final concentration of EGFP-mRNA=25 ng/well). After the incubation, the medium was replaced by 100 μL of fresh DMEM supplemented with 10% FBS. The total EGFP fluorescence was quantified after 72 h in a well plate reader. Amphiphile transfection efficiency was compared and normalized to Lipofectamine® MessengerMax efficiency (value of 1 in Tables 1-5 and 7; double underlined numbers). All experiments were done in triplicate.
as §2
Tables 14-19 show the mean (triplicates) fluorescence intensity measured after the transfection of EGFP mRNA by different amphiphiles at different concentrations in a variety of cell lines. Background fluorescence values, accounted by untreated control cells, were subtracted for processing.

[2] = system: Hek293 cells expressing EGFP; assay: Cas9-RNP delivery against EGFP (gene editing, plate reader), Hek293
Method: as §1
Cells expressing EGFP were seeded in a 96 well plate the day before the experiment at a concentration of 50,000 cell/mL (100 μL/w) in DMEM+10% FBS+1% Gln-Abt. For robotic library screening, the delivery of Cas9-RNP against EGFP (RNP designed to knock-out the gene encoding for the enhanced green fluorescent protein (EGFP)) was performed. For RNP assembly, 9.2 μL of crRNA and 9.2 μL of tracrRNA were mixed in 211.6 μL of Nuclease-Free Duplex Buffer (IDT), incubated for 5 min at 95° C. and slowly cooled at rt (see I. Lostalé-Seijo, et al. Peptide/Cas9 nanostructures for ribonucleoprotein cell membrane transport and gene edition, Chem. Sci., 2017). Cas9 protein was dissolved in DMEM at a final concentration of 4 μM and equal volumes of the RNA complex and Cas9 were mixed and incubated for 5 min at rt. 75 μL of the corresponding amphiphile concentrations were added to 5 μL of RNP at 2 μM. The mixture was shaken for 30 min at room temperature before the addition to the cells. The cell medium was aspirated, and cells were washed twice with PBS. Cells were covered with 30 μL of DMEM and 20 μL of the RNP/amphiphile complexes were added to the cells (final peptide concentrations=2.5, 5 and 10 μM; final Cas9-RNP concentration=50 nM) and incubated for 4 h. After the incubation, the medium was replaced by 100 μL of fresh DMEM supplemented with 10% FBS. The total EGFP fluorescence was quantified after 72 h in a plate reader (FIG. 2, Table 1 (right) and Table 6). All experiments were done in triplicate. […]
Tables 26-31 show the mean (triplicates) percentage of gene editing, accounted by GFP fluorescence intensity decrease (% of reduction), measured after the transfection of Cas9-RNP by different amphiphiles at different concentrations in a variety of cell lines. Background values, accounted by untreated control cells, were subtracted for processing.

Substance	percentage of GFP-silencing relative to siMOCK ([1]; Dodecanal, 10 μM)	percentage of GFP-silencing relative to siMOCK ([1]; Dodecanal, 15 μM)	percentage of GFP-silencing relative to siMOCK ([1]; Myristoleyl, 5 μM)	percentage of GFP-silencing relative to siMOCK ([1]; Myristoleyl, 10 μM)	percentage of GFP-silencing relative to siMOCK ([1]; Palmitoleyl, 5 μM)	percentage of GFP-silencing relative to siMOCK ([1]; Petroselinyl, 5 μM)	percentage of GFP-silencing relative to siMOCK ([1]; Petroselinyl, 10 μM)	mean fluorescence intensity (EGFP mRNA) (Hek293 cells; Dodecanal, 10 μM)	mean fluorescence intensity (EGFP mRNA) (Hek293 cells; Myristoleyl, 2.5 μM)	mean fluorescence intensity (EGFP mRNA) (Hek293 cells; Myristoleyl, 5 μM)	mean fluorescence intensity (EGFP mRNA) (Hek293 cells; Myristoleyl, 10 μM)	mean fluorescence intensity (EGFP mRNA) (Hek293 cells; Oleyl, 2.5 μM)	mean fluorescence intensity (EGFP mRNA) (Hek293 cells; Oleyl, 5 μM)	mean fluorescence intensity (EGFP mRNA) (Hek293 cells; Petroselinyl, 2.5 μM)	mean fluorescence intensity (EGFP mRNA) (Hek293 cells; Petroselinyl, 5 μM)	mean fluorescence intensity (EGFP mRNA) (Hek293 cells; Petroselinyl, 10 μM)	percentage of gene editing, GFP fluorescence intensity decrease (% of reduction) ([2]; Dodecanal, 5 μM)	percentage of gene editing, GFP fluorescence intensity decrease (% of reduction) ([2]; Myristoleyl, 5 μM)	percentage of gene editing, GFP fluorescence intensity decrease (% of reduction) ([2]; Palmitoleyl, 5 μM)	other results
Ac-RRLK*RLK*RRLK*RL-NH2 [Peptide 13.3]	31%	33%	13%	20%	19%	9%	41%	695	1316	1229	889	1384	853	768	1046	964	18%	−12%	−7%	percentage of GFP-silencing relative to siMOCK ([1]; Palmitoleyl, 10 μM): 46%; percentage of GFP-silencing relative to siMOCK ([1]; Palmitoleyl, 15 μM): 10%; percentage of GFP-silencing relative to siMOCK ([1]; Petroselinyl, 15 μM): 8%; percentage of gene editing, GFP fluorescence intensity decrease (% of reduction) ([2]; Dodecanal, 10 μM): −18%; percentage of gene editing, GFP fluorescence intensity decrease (% of reduction) ([2]; Myristoleyl, 15 μM): −48%
Ac-RK*LRK*K*L-NH2 (Ac-RK(NHNH2)LRK(NHNH2)K(NHNH2)L-NH2; not fully specified; printed as Ac-RK*LRK*K*L-NH2; also: K*2,K*5,K*6: native or modified lysine (ε-amide to a linker)) [Peptide 7.3]	17%	10%	6%	5%	9%	18%	19%	2056	11081	2907	982	3452	1414	9200	8731	476	−11%	−20%	23%	percentage of GFP-silencing relative to siMOCK ([1]; Myristoleyl, 15 μM): 3%; percentage of GFP-silencing relative to siMOCK ([1]; Oleyl, 5 μM): 7%; percentage of GFP-silencing relative to siMOCK ([1]; Oleyl, 10 μM): 9%; mean fluorescence intensity (EGFP mRNA) (Hek293 cells; Dodecanal, 2.5 μM): 9114; mean fluorescence intensity (EGFP mRNA) (Hek293 cells; Dodecanal, 5 μM): 17096; mean fluorescence intensity (EGFP mRNA) (Hek293 cells; Oleyl, 10 μM): 805; mean fluorescence intensity (EGFP mRNA) (Hek293 cells; Palmitoleyl, 2.5 μM): 4120; percentage of gene editing, GFP fluorescence intensity decrease (% of reduction) ([2]; Dodecanal, 15 μM): −15%; percentage of gene editing, GFP fluorescence intensity decrease (% of reduction) ([2]; Oleyl, 10 μM): −34%; percentage of gene editing, GFP fluorescence intensity decrease (% of reduction) ([2]; Palmitoleyl, 10 μM): −1%; percentage of gene editing, GFP fluorescence intensity decrease (% of reduction) ([2]; Palmitoleyl, 15 μM): 3%; percentage of gene editing, GFP fluorescence intensity decrease (% of reduction) ([2]; Petroselinyl, 5 μM): 29%; percentage of gene editing, GFP fluorescence intensity decrease (% of reduction) ([2]; Petroselinyl, 10 μM): 34%; percentage of gene editing, GFP fluorescence intensity decrease (% of reduction) ([2]; Petroselinyl, 15 μM): 23%
